# Test system: JEG-3 (human placental choriocarcinoma cell line)
# Experiment: Oligo microarray gene expression in drug-treated JEG-3 (Cy5 treated / Cy3 control)
# Assay type: cell-based
# Conditions: treated at IC30, up-regulated gene
# Experimental: Thalidomide, valproic acid, and methotrexate were treated to human placental choriocarcinoma cell line at the concentrations determined above (Inhibition concentration: the concentration that can kill approximately 30% of the total cells, that is the concentration of 70% viability, IC30). mRNA was extracted from the drug treated cell line, followed by synthesis of cDNA which was labeled with Cy5. The non-treated control was labeled with Cy3. The fluorescence labeled cDNA was hybridized with 41K (thalidomide), 44K (valproic acid, methotrexate) human whole genome oligomicroarray chips (Agilent, USA), followed by fluorescent image scanning to analyze gene expression patterns (see FIG. 4). Volcano Plot of each substance was also attached. Y axis indicates probability (generally converted by −log 10). X axis indicates differential expression, which is presented by log-ratio.
# Total RNA was separated from the treated cell by using trizol reagent (Invitrogen Life Technologies, USA) according to the manufacture's instructions, followed by purification using RNeasy mini kit (Qiagen, USA). Genomic DNA was eliminated during RNA purification using RNase-free DNase set (Qiagen, USA).
# 30 μg of the total RNA obtained above and 2 μg (1 μg/μl) of oligo (dT) primer were mixed, followed by reaction at 65° C. for 10 minutes. Annealing was performed in ice right after the reaction. Reagents were prepared as shown in Table 1 for reverse transcription of the annealed RNA.
# The total RNA separated from the control group JEG-3 cells was labeled with Cy3-dUTP (green) and the total RNA separated from the experiment group JEG-3 cells treated with thalidomide, valproic acid and methotrexate was labeled with Cy5-dUTP (red). At this time, the two samples were mixed and purified by Microcon YM-30 column (Millipore, USA).
# Hybridization and washing were performed by the manufacturer's (GenoCheck, Korea) instructions. Particularly, hybridization was performed in a 62° C. oven for 12 hours. As a DNA microarray chip, 44 k whole human genome oligo microarray (Agilent, USA) was used. After washing (2 minutes with 2×SSC/0.1% SDS, three minutes with 1×SSC, 2 minutes with 0.2×SSC), the slide was dried by centrifugation at 800 rpm for 3 minutes.
# Hybridization image on the slide was scanned with Genepix 4000B (Axon Instruments, USA). Fluorescence image of the chip on which non-hybridized genes had been washed out was obtained by using laser fluorescence scanner. Green fluorescence image indicates the activity of gene specifically expressed in the control group and red fluorescence image indicates the activity of gene specifically expressed in the experimental group. […] Scanned image was analyzed by using GenePix 4.1 software (Axon Instruments, USA) to calculate gene expression rate.
# [1] = (j) Response to oxidative stress
# [2] = (k) common gene which has no function
smiles,measurement,setting,value
"CCCC(CCC)C(=O)O [VPA, valproic acid]","Ratio of intermediate value, gene GSTM3 (NM_000849, GLUTATHION E S-TRANSFERASE M3 (BRAIN))",(h) Nervous system development,3.69
same,"Ratio of intermediate value, gene HEYL (NM_014571, HAIRY/ENHANCER-OF-SPLIT RELATED WITH YRPW MOTIF-LIKE)",(h) Nervous system development,2.13
same,"Ratio of intermediate value, gene IRS2 (NM_003749, INSULIN RECEPTOR SUBSTRATE 2)",(h) Nervous system development,2.09
same,"Ratio of intermediate value, gene KCNQ2 (NM_172109, POTASSIUM VOLTAGE-GATED CHANNEL, KQT-LIKE SUBFAMILY, MEMBER 2)",(h) Nervous system development,4.41
same,"Ratio of intermediate value, gene KDELC1 (NM_015831, ACETYLCHOLINESTERASE (YT BLOOD GROUP))",(h) Nervous system development,2.47
same,"Ratio of intermediate value, gene KIF5C (AB011103, KINESIN HEAVY CHAIN NEURON-SPECIFIC 2)",(h) Nervous system development,11.94
same,"Ratio of intermediate value, gene MAPT (NM_016835, MICROTUBULE-ASSOCIATED PROTEIN TAU)",(h) Nervous system development,3.18
same,"Ratio of intermediate value, gene MYLIP (NM_013262, MYOSIN REGULATORY LIGHT CHAIN INTERACTING PROTEIN)",(h) Nervous system development,2.88
same,"Ratio of intermediate value, gene NRXN3 (NM_004796, NEUREXIN 3)",(h) Nervous system development,2.25
same,"Ratio of intermediate value, gene PPIL6 (NM_000115, ENDOTHELIN RECEPTOR TYPE B)",(h) Nervous system development,3.13
same,"Ratio of intermediate value, gene PRPS1 (NM_002764, PHOSPHORIBOSYL PYROPHOSPHATE SYNTHETASE 1)",(h) Nervous system development,2.12
same,"Ratio of intermediate value, gene SCG10; SGC10; SCGN10 (S82024, STATHMIN-LIKE 2)",(h) Nervous system development,2.41
same,"Ratio of intermediate value, gene SDFR1 (NM_012428, NEURO-PLASTIN)",(h) Nervous system development,2.26
same,"Ratio of intermediate value, gene SELM (BX537571, FYN ONCOGENE RELATED TO SRC, FGR, YES)",(h) Nervous system development,3.34
same,"Ratio of intermediate value, gene SEMA6C (NM_030913, SEMA DOMAIN, TRANSMEMBRANE DOMAIN (TM), AND CYTOPLASMIC DOMAIN, (SEMAPHORIN) 6C)",(h) Nervous system development,2.77
same,"Ratio of intermediate value, gene TUBB2 (NM_001069, TUBULIN, BETA 2A)",(h) Nervous system development,3.11
same,"Ratio of intermediate value, gene TWSG1 (NM_020648, TWISTED GASTRULATION HOMOLOG 1 (DROSOPHILA))",(h) Nervous system development,2.56
same,"Ratio of intermediate value, gene GCLM (CR598364, GLUTAMATE-CYSTEINE LIGASE, MODIFIER SUBUNIT)",(i) Neuron apoptosis,2.61
same,"Ratio of intermediate value, gene GTF2A1 (BC028148, TUMOR NECROSIS FACTOR (TNF SUPERFAMILY, MEMBER 2))",(i) Neuron apoptosis,2.15
same,"Ratio of intermediate value, gene HPCAL4 (BC028066)",(i) Neuron apoptosis,6.07
same,"Ratio of intermediate value, gene KRAS2 (BC029545, V-HA-RAS HARVEY RAT SARCOMA VIRAL ONCOGENE HOMOLOG)",(i) Neuron apoptosis,2.62
same,"Ratio of intermediate value, gene LIG4 (NM_002312, LIGASE IV, DNA, ATP-DEPENDENT)",(i) Neuron apoptosis,2.19
same,"Ratio of intermediate value, gene DKFZp761B1514 (AK025742, UNCOUPLING PROTEIN 2 (MITOCHONDRIAL, PROTON CARRIER))",[1],2.39
same,"Ratio of intermediate value, gene DYRK3 (BC030009, SELENOPROTEIN P, PLASMA, 1)",[1],5.57
same,"Ratio of intermediate value, gene FTH1 (BC006523, SERUM/GLUCOCORTICOID REGULATED KINASE 2)",[1],2.13
same,"Ratio of intermediate value, gene GPX3 (NM_002084, GLUTATHIONE PEROXIDASE 3 (PLASMA))",[1],2.10
same,"Ratio of intermediate value, gene HMOX1 (NM_002133, HEME OXYGENASE (DECYCLING) 1)",[1],2.85
same,"Ratio of intermediate value, gene MOSPD1 (H18681, SULFIREDOXIN 1 HOMOLOG (S. CEREVISIAE))",[1],3.56
same,"Ratio of intermediate value, gene RPL4 (AK094940, GLUTAMATE-CYSTEINE LIGASE, CATALYTIC SUBUNIT)",[1],2.49
same,"Ratio of intermediate value, gene TXNIP (NM_006472, THIOREDOXIN INTERACTING PROTEIN)",[1],4.52
same,"Ratio of intermediate value, gene ATP10B (AB018258, ATPase, Class V, type 10B)",[2],2.03
same,"Ratio of intermediate value, gene BQ186674 (cDNA clone UI-E-EJ1-ajr-f-10-0-UI, Hypothetical gene supported by AF086204)",[2],2.79
same,"Ratio of intermediate value, gene BX111592 (Transcribed locus, moderately similar to XP_066443.6 PREDICTED: similar to paraneoplastic antigen like 6A)",[2],1.50
same,"Ratio of intermediate value, gene CGA (NM_000735, Glycoprotein hormones, alpha polypeptide)",[2],2.14
same,"Ratio of intermediate value, gene COBLL1 (BX649112, COBL-like 1)",[2],1.52
same,"Ratio of intermediate value, gene CYP19A1 (AK023571, Cytochrome P450, family 19, subfamily A, polypeptide 1)",[2],1.78
same,"Ratio of intermediate value, gene FLJ11017 (AK001879, Hypothetical protein FLJ11017)",[2],1.87
same,"Ratio of intermediate value, gene GLCCI1 (AK126731, Glucocorticoid induced transcript 1)",[2],2.27
same,"Ratio of intermediate value, gene KIAA0310 (AB002308, KIAA0310)",[2],1.59
same,"Ratio of intermediate value, gene MGC27016 (AK125877, Hypothetical protein MGC27016)",[2],2.62
same,"Ratio of intermediate value, gene NCOA3 (NM_181659, Nuclear receptor coactivator 3)",[2],1.62
same,"Ratio of intermediate value, gene RGS2 (BC042755, Regulator of G-protein signalling 2, 24 kDa)",[2],3.04
same,"Ratio of intermediate value, gene SIAT7A (BC063830, ST6 (alpha-N-acetyl-neuraminyl-2,3-beta-galactosyl-1,3)-N-acetylgalactosaminide alpha-2,6-sialyltransferase 1)",[2],1.69
same,"Ratio of intermediate value, gene SIAT8D (NM_005668, ST8 alpha-N-acetyl-neuraminide alpha-2,8-sialyltransferase 4)",[2],1.79
same,"Ratio of intermediate value, gene SLC7A8 (Y18483, Solute carrier family 7 (cationic amino acid transporter, y+ system), member 8)",[2],2.48
same,"Ratio of intermediate value, gene SLC40A1 (AK023574, Solute carrier family 40 (iron-regulated transporter), member 1)",[2],1.70
same,"Ratio of intermediate value, gene TFCP2L4 (BC036890, Grainyhead-like 3 (Drosophila))",[2],3.12
same,"Ratio of intermediate value, gene TTF2 (AB209845, Transcription termination factor, RNA polymerase II)",[2],1.81
same,"Ratio of intermediate value, gene TUBB3 (AK122757, Tubulin, beta 3)",[2],1.70
same,"Ratio of intermediate value, gene TncRNA (AF001893, Trophoblast-derived noncoding RNA)",[2],3.61
